For the assay, the system named is compound 48/80-induced systemic anaphylaxis-like reactions in mice. In words: Compound 48/80-induced systemic anaphylaxis-like reactions in mice (mortality). It is filed as in vivo. Particulars: n = 8, oral 1 h before i.p. compound 48/80 (8 mg/kg), mortality within 1 h. On the procedure: Five groups each of 8 male albino mice were used in this experiment. Mice were housed 4 per cage and were maintained at room temperature (25 ± 0.5 °C). All experiments were performed in compliance with the guidelines approved by the ethics committee of Faculty of Pharmacy, The British University in Egypt (approval number Ex-1904). The mice in the first group were administered phosphate buffer saline orally (negative control group), while the second group were administered phosphate buffer saline 1 hour prior to an intraperitoneal injection of 8 mg/kg of the mast cell degranulator compound 48/80 which induces systemic anaphylaxis-like reactions in mice (positive control group). […] The mortality was monitored for 1 h after induction of anaphylactic shock. After the mortality test, blood was obtained from the heart of each mouse by cardiac puncture.

Counter-ions that a name gives are not always drawn. Marks after values point to notes of the source that are not given here.

Take `CC(C)(C(=O)O)c1ccc(C(O)CCCN2CCC(C(O)(c3ccccc3)c3ccccc3)CC2)cc1` (stereo not shown) [FEX powder, Fexofenadine HCl]: the Mortality is given as 62.5% *.

Values taken from paper PMC7285181 (Pharmaceutics, 2020).
